Laboratory results published in ChEMBL document CHEMBL1159024, “Inhibitory effect of tannic acid on gastric H+,K(+)-ATPase” (J Nat Prod, 1992).
pIC50: −log10 of the molar value. The source made the active and inactive calls. The rule behind the calls is not given here.

Assays:
[1] = Inhibition of K+ dependent pNPPase from pig gastric mucosa; assay type: tissue-based, Sus scrofa
Sus scrofa [2] = species on record: Sus scrofa; test: Inhibition of H(+)/K(+) ATPase from pig gastric mucosa by non competitive-double reciprocal plot in presence of K+; assay type: tissue-based
[3] = Inhibition of H(+)/K(+) ATPase from pig gastric mucosa; assay type: tissue-based, Sus scrofa
Sus scrofa [4] = species on record: Sus scrofa; test: Inhibition of H(+)/K(+) ATPase from pig gastric mucosa by competitive-double reciprocal plot in presence of ATP; assay type: tissue-based

## O=C(OC[C@H]1O[C@@H](OC(=O)c2cc(O)c(O)c(OC(=O)c3cc(O)c(O)c(O)c3)c2)[C@H](OC(=O)c2cc(O)c(O)c(OC(=O)c3cc(O)c(O)c(O)c3)c2)[C@@H](OC(=O)c2cc(O)c(O)c(OC(=O)c3cc(O)c(O)c(O)c3)c2)[C@@H]1OC(=O)c1cc(O)c(O)c(OC(=O)c2cc(O)c(O)c(O)c2)c1)c1cc(O)c(O)c(OC(=O)c2cc(O)c(O)c(O)c2)c1 [TANNIC ACID]
[1]
  pIC50: 6.39
Sus scrofa [2]
  Activity: Active
[3]
  pIC50: 7.54
Sus scrofa [4]
  Activity: Active

## O=c1oc2c(O)c(O)cc3c(=O)oc4c(O)c(O)cc1c4c23 [ELLAGIC ACID]
Sus scrofa [2]
  Activity: Active
[3]
  pIC50: 6.68
Sus scrofa [4]
  Activity: Active
